Results reported in ChEMBL document CHEMBL1201862, “PubChem BioAssay data set” (2004).
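How tested: cells in 96-well plates exposed to compound for 48 hours at five concentrations. Abbreviation: GI50, concentration required for 50% inhibition of growth.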 Active and inactive are the calls of the source. No stated cut-off is given here; in the data, active = GI50 up to about 1.1 µM and inactive = higher.

Assays:
Assay in all cases: NCI-60 cell line screen, 48 h
MDA-MB-231 = test system: MDA-MB-231
SK-MEL-2 = test system: SK-MEL-2
PC-3 = test system: PC-3
ACHN = test system: ACHN
U-251 = test system: U-251
NCI/ADR-RES = test system: NCI/ADR-RES
COLO 205 = test system: COLO 205
OVCAR-8 = test system: OVCAR-8
HL-60 = test system: HL-60
OVCAR-3 = test system: OVCAR-3
T47D = test system: T47D
SF-539 = test system: SF-539
SN12C = test system: SN12C
HCC 2998 = test system: HCC 2998
RXF 393 = test system: RXF 393
NCI-H226 = test system: NCI-H226
HOP-62 = test system: HOP-62
SNB-75 = test system: SNB-75
NCI-H23 = test system: NCI-H23
M19-MEL = test system: M19-MEL

Compound	GI50 (MDA-MB-231)	GI50 (SK-MEL-2)	GI50 (PC-3)	GI50 (ACHN)	GI50 (U-251)	GI50 (NCI/ADR-RES)	GI50 (COLO 205)	GI50 (OVCAR-8)	GI50 (HL-60)	GI50 (OVCAR-3)	GI50 (T47D)	GI50 (SF-539)	GI50 (SN12C)	GI50 (HCC 2998)	GI50 (RXF 393)	GI50 (NCI-H226)	GI50 (HOP-62)	GI50 (SNB-75)	GI50 (NCI-H23)	GI50 (M19-MEL)
CC(=O)OC/C=C(/C=C/CNC1CCCCC1)OC(C)=O	14.3 µM (inactive)	19.8 µM (inactive)	17.3 µM (inactive)	16.4 µM (inactive)	17.8 µM (inactive)	19.6 µM (inactive)	13.9 µM (inactive)	> 10 µM (inactive)	> 10 µM (inactive)	17.4 µM (inactive)	7.26 µM (inactive)	11.6 µM (inactive)	16.7 µM (inactive)	23.4 µM (inactive)	17.9 µM (inactive)	25.9 µM (inactive)	16.5 µM (inactive)	31.3 µM (inactive)	16.3 µM (inactive)	
Cc1n[nH]/c(=N\S(=O)(=O)c2ccc(/N=N/c3c(O)c(C(=O)O)cc4ccccc34)cc2)s1	> 100 µM (inactive)	> 100 µM (inactive)	> 100 µM (inactive)	> 100 µM (inactive)	> 100 µM (inactive)	> 100 µM (inactive)	> 100 µM (inactive)	> 100 µM (inactive)	> 100 µM (inactive)	> 100 µM (inactive)	> 100 µM (inactive)	> 100 µM (inactive)	> 100 µM (inactive)	> 100 µM (inactive)	> 100 µM (inactive)	> 100 µM (inactive)	> 100 µM (inactive)	> 100 µM (inactive)	> 100 µM (inactive)	
N#Cc1c(-c2ccc(Cl)cc2)[nH]c(=O)n(C2OC(CO)C(O)C(O)C2O)c1=O (stereo unspecified)	> 100 µM (inactive)	> 100 µM (inactive)	> 100 µM (inactive)	> 100 µM (inactive)	> 100 µM (inactive)	> 100 µM (inactive)	> 100 µM (inactive)	> 100 µM (inactive)	> 100 µM (inactive)	> 100 µM (inactive)	74 µM (inactive)	> 100 µM (inactive)	> 100 µM (inactive)	> 100 µM (inactive)	> 100 µM (inactive)	46 µM (inactive)	> 100 µM (inactive)	43.2 µM (inactive)	> 100 µM (inactive)	
C=C1C(=O)OC2CC(C)C3(O)CCC(=O)C3(C)CC12 (stereo unspecified)	26 µM (inactive)	22.2 µM (inactive)	49 µM (inactive)	17.5 µM (inactive)	38.1 µM (inactive)	32.4 µM (inactive)	40 µM (inactive)	24.6 µM (inactive)	18 µM (inactive)	16 µM (inactive)	40.4 µM (inactive)	16.1 µM (inactive)	19.1 µM (inactive)	23 µM (inactive)	21.8 µM (inactive)	64 µM (inactive)	28.2 µM (inactive)	20.2 µM (inactive)	31.7 µM (inactive)	
O=c1nc(/C=C/c2ccccc2Cl)cc2n1CCN2CCO		72.3 µM (inactive)		> 100 µM (inactive)			> 100 µM (inactive)	> 100 µM (inactive)	> 100 µM (inactive)	28.6 µM (inactive)		> 100 µM (inactive)	> 100 µM (inactive)		95.1 µM (inactive)	97.9 µM (inactive)	> 100 µM (inactive)	26.3 µM (inactive)		> 100 µM (inactive)
COC(=O)CCSC(=O)Nc1ccc(/N=N/c2ccccc2)cc1				29 µM (inactive)	37.5 µM (inactive)		20.3 µM (inactive)	45.8 µM (inactive)		29.5 µM (inactive)		> 100 µM (inactive)	69 µM (inactive)	23.6 µM (inactive)	> 100 µM (inactive)	60.4 µM (inactive)	> 100 µM (inactive)	31 µM (inactive)	34.2 µM (inactive)	45.4 µM (inactive)
Cc1cc(CC(=O)NCCO)n(CCO)c(=O)c1				> 100 µM (inactive)	> 100 µM (inactive)		> 100 µM (inactive)	> 100 µM (inactive)	> 100 µM (inactive)	> 100 µM (inactive)		> 100 µM (inactive)	> 100 µM (inactive)	> 100 µM (inactive)	> 100 µM (inactive)		> 100 µM (inactive)	84.1 µM (inactive)	> 100 µM (inactive)	> 100 µM (inactive)
Cc1c(F)c(N)c2c(=O)cc(-c3ccc(N)c(F)c3)oc2c1F [AMINOFLAVONE]	18.7 µM (inactive)	40.6 µM (inactive)	20.7 µM (inactive)	15.7 µM (inactive)	4.2 µM (inactive)	13.9 µM (inactive)	32.5 µM (inactive)	19.6 µM (inactive)	44.8 µM (inactive)	0.458 µM (active)	0.313 µM (active)	14.9 µM (inactive)	17.1 µM (inactive)	19 µM (inactive)	17 µM (inactive)	3.52 µM (inactive)	12.7 µM (inactive)	26.7 µM (inactive)	19.6 µM (inactive)	
